Experimental data published in paper PMC4581228, “Membrane Affinity of Platensimycin and Its Dialkylamine Analogs” (International Journal of Molecular Sciences, 2015).

Legend:
[1] = Langmuir monolayer pressure-area isotherms; assay type: physicochemical, E. coli
Experimental: All Langmuir monolayer experiments were done with a two-barrier rectangular 22 cm × 6 cm trough (MicroTrough XS, Kibron Inc., Helsinki, Finland) placed in an Airclean hood. A Dyneprobe metal alloy needle was used as the Wilhelmy plate. Lipids used were E. coli total polar lipid extract from Avanti Polar Lipids (Alabaster, AL, USA) dissolved in chloroform or hexane to a final concentration of 0.2 mg/mL. Distribution of lipids onto the subphase was accomplished using a gastight 50 µL Hamilton® syringe (Hamilton, Reno, NV, USA). The subphase buffer was identical to the tensiometry buffer. Pressure—Area isotherms (monolayers) were performed at room temperature (~20 °C) from 114 to 18 cm^2 at a barrier rate of 20 mm/min. For each analog, isotherms were measured at least four times at every concentration.
In Langmuir experiments, the value of the bulk-monolayer (Klip) partitioning coefficient was determined in a similar way, using the deviations of surface pressure of monolayers measured at constant area. […] However, at this compression, strongly intercalating substances produced pressure shifts beyond the collapse pressure of 45–47 mN/m, which forced us to score Δπ from surface pressure of 20 mN/m achieved at ~80 Å^2/molecule. Klip1 obtained in this expanded state was than corrected for the lateral pressure increase from π1 = 20 to π2 = 35 mN/m, which has the same form as Equation (7) in [5]: (6) ln(Klip2)=ln(Klip1)−(π2−π1)adNA/RT
Here ad is the area taken by the drug in the plane of the monolayer.
To estimate ad we assumed equilibrium between the drug in the subphase and in the monolayer and equated its chemical potentials in the two phases: (7) μ0+RTln(χd)=μ0σ+RTln(χdσ)+π⋅adNA
The right part with indexes σ represents the surface parameters of standard chemical potential µ0σ and drug mole fraction χdσ , whereas the left part represents the bulk parameters. Defining lnKlip = µ0σ −µ0 one can rearrange this equation as (8) lnKlip−lnχdσ−lnχd=π⋅adNA/RT
Differentiating with respect to π gives (9) −RTd(lnχdσ)/NAdπ=ad
Thus the molecular area of the drug defines the slope of χdσ , with which the drug re-partitions back to the subphase as surface pressure π increases. We further assume that at a given surface pressure, insertion of nd drug molecules into the film comprised of nL lipid molecules with initial area A0, should dilate the film by ΔA. (10) nd/nL=ΔA/A0⋅aL/ad
The parameter aL, the area per lipid at that particular pressure, is taken from the control pressure-area isotherm with no drug. The mole fraction of the drug in the monolayer χdσ = nd/(nd + nL) is related to the extent of monolayer dilation ΔA (11) ΔA=ad⋅nd=adnL⋅χdσ/1−χdσ
On the assumption that χdσ is small, ΔA is proportional to the mole fraction of the drug. In Equation (4) we substitute and obtain (12) −kTd(lnΔA)/dπ=ad
Thus, the molecular area of the drug can be determined from the logarithmic slope of ΔA on surface pressure. Once we know ad, we can introduce a correction to Klip due to lateral pressure change ([…]). In addition, we can estimate the molar ratio of drug-to-lipid, the mole fraction χdσ and the partitioning constant. From the extent of monolayer dilation at a constant surface pressure (chosen to be 20 mN/m), the apparent bulk-monolayer partitioning coefficient Klip could be independently estimated as Klip=χdσ/χd , where […] = Cd/55 represents the drug mole fraction in the subphase.

[2] = Tensiometry at the air-water interface (Wilhelmy method); assay type: physicochemical; details: air-water partitioning coefficient, tensiometry, buffer pH 7.4
Experimental: Surface tensions of subphase solutions with varying concentrations of platensimycin analogs were quantified using the Wilhelmy method with a piece of filter paper (Whatman, No. 1, 10.5 mm wide and 0.25 mm thick) used as a probe. The subphase buffer consisted of 200 mM KCl, 10 mM MgCl2, 5 mM CaCl2, 5 mM HEPES (Sigma-Aldrich, St. Louis, MO, USA) titrated to a pH of 7.4 with KOH. The pressure sensor (model 601, NIMA, Coventry, UK) was calibrated using a 100 mg weight. Water surface tension was measured to be […], after calibration. […] The surface activity and values for molecular area at the surface of the air-water interface (As), the partition coefficient at the air-water interface of the surface active molecule (KAW), and the membrane partitioning coefficient (Kmem), were determined as described previously.
The analysis of interfacial adsorption data was performed in the general framework of the Gibbs equation (1) dπ=∑Γidμi where dπ represents a small change in surface pressure, Γi is surface excess of component i and dμi is the small change of chemical potential of that component in the aqueous phase. For one adsorbing component, in an ideal case the Gibbs isotherm takes the form (2) dπ=RTΓd ln C where surface excess is defined as the surface density of molecules Γ = 1/(NAaS), NA is Avogadro’s number and aS is the area requirement for the molecule at the surface. The adsorbing substance gradually saturates the surface; the process that can be approximated by a Langmuir isotherm: (3) Γ=Γ∞lnKAW⋅C/1+KAW⋅C
Thus, beyond a certain bulk concentration, Γ approaches a constant value of Γ∞ and in that range of concentrations a linear relationship holds: (4) Γ∞=(1/RT)dπ/d ln C
To evaluate the partition coefficient for an air-water interface (KAW) and monolayers (Klip), the integral form of this equation attributed to Szyszkowski and previously applied to monolayers by Seelig and coworkers was used: (5) π=RTΓ∞ln(KAWC+1)
As was shown in Suomolainen 2004 [5], the x-intercept of the fitting line of experimental π-lnC curve would approximate the inverse partitioning coefficient 1/KAW, measured at the air-water interface.

E. faecium, VRE = test system: E. faecium, VRE; parameters: method as in PMID 17707686; details: Gram-positive; cited from earlier work
E. coli = test system: E. coli; parameters: method as in PMID 17707686; details: Gram-negative; only when co-administered with Phe-Arg-β-naphthylamide dihydrochloride (PAβND), efflux pump inhibitor; cited from earlier work
S. aureus, MRSA = test system: S. aureus, MRSA; parameters: method as in PMID 17707686; details: Gram-positive; cited from earlier work
[3] = test system: A98S MscS in the cytoplasmic membrane of E. coli; assay: Patch-clamp of A98S MscS in excised spheroplast patches (activation midpoint shift)
Experimental: A pB10b vector was used to house and express the mscS gene in the triple-knockout E. coli strain MJF465 (mscS^−, mscL^−, mscK^−). The A98S MscS mutant, generated and partially characterized previously, was chosen for its higher sensitivity to inner leaflet drug partitioning.
Spheroplasts were generated as described previously. The experimental bath solution contained 400 mM sucrose, 200 mM KCl, 50 mM MgCl2, 5 mM CaCl2, and 5 mM HEPES and was titrated to pH 7.4 with KOH. Membrane patches were obtained on borosilicate glass pipettes and recorded at 30 mV pipette voltage set by a microelectrode amplifier. The midpoint of activation for channels in each patch was determined at two-minute intervals for the duration of the experiment via a 1 s ramp of saturating pressure. Analogs of platensimycin were pre-diluted in either ethanol or bath solution and perfused into the bath to achieve the desired concentration; control injections of equivalent volumes of ethanol had no effect on the midpoint of activation. Negative pressure (suction) was applied with the HSPC-1 high speed pressure clamp apparatus from ALA Scientific. Programming of the pressure protocols and data analysis was performed with the PClamp10 suite (Axon Instr., Foster City, CA, USA). The principle of lateral pressure measurements using two experimental systems, lipid monolayers and patch-clamp, is illustrated in Figure 1.
Similarly, the bulk-membrane partitioning coefficient (Kmem) was estimated from the values of relative increase in MscS activation pressure midpoint (p0.5) measured in patch-clamp experiments at different concentrations of intercalating agents by linear fit of Δp0.5 as a function of log(Cd).

Bacillus subtilis = details: cited from earlier work
[4] = test system: WT MscS in the cytoplasmic membrane of E. coli; assay: Patch-clamp of WT MscS in excised spheroplast patches (activation midpoint shift); details: cytoplasmic addition of 0.6 mM, six independent patches
From the text: We explored the A98S gain-of-function mutant of MscS and found it to be a more suitable sensor. In pressure ramp experiments this mutant activates earlier, but apparently has the same tension dependency of inactivation as WT [20]. […] The serine-for-alanine substitution hydrophilizes the outer portion of the hydrophobic pore. As a result, the remaining hydrophobic region is localized to the cytoplasmic portion of the pore, placing the gate more asymmetrically relative to the mid-plane of the bilayer. […] We tested this mutant against WT with a cytoplasmic addition of 0.6 mM paraben, which has been characterized previously. The typical activation curves (open probability vs. pipette pressure) measured with pipettes of equal size for the two channels are shown in Figure 2. Not only is the absolute shift of activating pressure (p0.5) greater for A98S, but the percentage of midpoint shift relative to the original midpoint averaged for six independent patches was 41% ± 6% for the mutant vs. 14% ± 4% for WT. […]
Spheroplasts were generated as described previously. […] Membrane patches were obtained on borosilicate glass pipettes and recorded at 30 mV pipette voltage set by a microelectrode amplifier. The midpoint of activation for channels in each patch was determined at two-minute intervals for the duration of the experiment via a 1 s ramp of saturating pressure. […]

CC1(C)C2CC=C(CN(CCC(=O)Nc3c(O)ccc(C(=O)O)c3O)CC3=CCC4CC3C4(C)C)C1C2 [QD-11, myrtemycin]
Concentration in the subphase at which presence is detectable on isotherms [1]: 10^−7 M
log Klip @ 20 mN/m, Measured ([1]; E. coli polar lipid monolayer, 20 mN/m, pH 7.4, ~20 °C): 6.7
Effective Molec. Area (ad) ([1]; area taken by the drug in the monolayer, from slopes of log(ΔArea) vs. surface pressure): 31 Å^2
log Klip @ 35 mN/m, Corrected ([1]; corrected to the monolayer-bilayer equivalence pressure 35 mN/m (Equation 6)): 6.2
log KAW (tens.) [2]: 6.1
Activity against E. faecium, VRE (E. faecium, VRE): active
Activity against E. coli (E. coli): active
Activity against S. aureus, MRSA (S. aureus, MRSA): active
Initial unilateral insertion into the membrane relative to flipping across the membrane ([3]; sequential additions): five to six times faster
log Kmem (patch-clamp) ([3]; x-intercept of midpoint shift (∆p0.5) vs. concentration, native E. coli membrane, cytoplasmic side): 5.7
Activity against B. subtilis (Bacillus subtilis; Gram-positive): active
MIC for B. subtilis (Bacillus subtilis; cultures of Bacillus subtilis, ref 22 (table title)): 4 mg/L

CCCCOC(=O)c1ccc(O)cc1 [paraben, butyl paraben, reference compound]
Percentage of midpoint shift relative to the original midpoint [4]: 14% ± 4%
Percentage of midpoint shift relative to the original midpoint ([3]; A98S MscS, cytoplasmic addition of 0.6 mM, six independent patches): 41% ± 6%
